ChEMBL document CHEMBL5723582, “Data for DCP probe T-10430” (2024)

Assays:
[1] = target: Endothelin receptor type B (Homo sapiens) (UniProt P24530); test: RLU of EDNRB at 1.0 µM in the […] PRESTO-Tango GPCRome screen; conditions: Compound concentration 1.0 uM
[2] = target: Probable G-protein coupled receptor 156 (Homo sapiens) (UniProt Q8NFN8); test: RLU of GPR156 at 1.0 µM in the […] PRESTO-Tango GPCRome screen; conditions: Compound concentration 1.0 uM
[3] = target: Adhesion G protein-coupled receptor A3 (Homo sapiens) (UniProt Q8IWK6); test: RLU of GPR125 at 1.0 µM in the […] PRESTO-Tango GPCRome screen; conditions: Compound concentration 1.0 uM
[4] = target: Free fatty acid receptor 2 (Homo sapiens) (UniProt O15552); test: RLU of FFA2 (GPR43) at 1.0 µM in the […] PRESTO-Tango GPCRome screen; conditions: Compound concentration 1.0 uM
[5] = target: Atypical chemokine receptor 3 (Homo sapiens) (UniProt P25106); test: RLU of CXCR7 at 1.0 µM in the […] PRESTO-Tango GPCRome screen; conditions: Compound concentration 1.0 uM
[6] = target: G-protein coupled receptor 37-like 1 (Homo sapiens) (UniProt O60883); test: RLU of GPR37L1 at 1.0 µM in the […] PRESTO-Tango GPCRome screen; conditions: Compound concentration 1.0 uM
[7] = target: Galanin receptor type 2 (Homo sapiens) (UniProt O43603); test: RLU of GAL2 at 1.0 µM in the […] PRESTO-Tango GPCRome screen; conditions: Compound concentration 1.0 uM
[8] = target: G-protein coupled receptor 65 (Homo sapiens) (UniProt Q8IYL9); test: RLU of GPR65 at 1.0 µM in the […] PRESTO-Tango GPCRome screen; conditions: Compound concentration 1.0 uM
[9] = target: Type-2 angiotensin II receptor (Homo sapiens) (UniProt P50052); test: RLU of AGTR2 at 1.0 µM in the […] PRESTO-Tango GPCRome screen; conditions: Compound concentration 1.0 uM
[10] = target: Trace amine-associated receptor 2 (Homo sapiens) (UniProt Q9P1P5); test: RLU of TAAR2 at 1.0 µM in the […] PRESTO-Tango GPCRome screen; conditions: Compound concentration 1.0 uM
[11] = target: Apelin receptor (Homo sapiens) (UniProt P35414); test: RLU of APJ at 1.0 µM in the […] PRESTO-Tango GPCRome screen; conditions: Compound concentration 1.0 uM
[12] = target: N-arachidonyl glycine receptor (Homo sapiens) (UniProt Q14330); test: RLU of GPR18 at 1.0 µM in the […] PRESTO-Tango GPCRome screen; conditions: Compound concentration 1.0 uM
[13] = target: Free fatty acid receptor 3 (Homo sapiens) (UniProt O14843); test: RLU of FFA3 (GPR41) at 1.0 µM in the […] PRESTO-Tango GPCRome screen; conditions: Compound concentration 1.0 uM
[14] = target: G-protein coupled estrogen receptor 1 (Homo sapiens) (UniProt Q99527); test: RLU of GPER at 1.0 µM in the […] PRESTO-Tango GPCRome screen; conditions: Compound concentration 1.0 uM
[15] = target: Adhesion G-protein coupled receptor G6 (Homo sapiens) (UniProt Q86SQ4); test: RLU of GPR126 at 1.0 µM in the […] PRESTO-Tango GPCRome screen; conditions: Compound concentration 1.0 uM
[16] = target: Vasopressin V1a receptor (Homo sapiens) (UniProt P37288); test: RLU of AVPR1A at 1.0 µM in the […] PRESTO-Tango GPCRome screen; conditions: Compound concentration 1.0 uM
[17] = target: Probable G-protein coupled receptor 141 (Homo sapiens) (UniProt Q7Z602); test: RLU of GPR141 at 1.0 µM in the […] PRESTO-Tango GPCRome screen; conditions: Compound concentration 1.0 uM
[18] = target: Adenosine receptor A3 (Homo sapiens) (UniProt P0DMS8); test: RLU of ADORA3 at 1.0 µM in the […] PRESTO-Tango GPCRome screen; conditions: Compound concentration 1.0 uM
[19] = target: Mu-type opioid receptor (Homo sapiens) (UniProt P35372); test: RLU of OPRM1 at 1.0 µM in the […] PRESTO-Tango GPCRome screen; conditions: Compound concentration 1.0 uM
[20] = target: 5-hydroxytryptamine receptor 1F (Homo sapiens) (UniProt P30939); test: RLU of HTR1F at 1.0 µM in the […] PRESTO-Tango GPCRome screen; conditions: Compound concentration 1.0 uM
[21] = target: G-protein coupled receptor 26 (Homo sapiens) (UniProt Q8NDV2); test: RLU of GPR26 at 1.0 µM in the […] PRESTO-Tango GPCRome screen; conditions: Compound concentration 1.0 uM
[22] = target: Relaxin-3 receptor 2 (Homo sapiens) (UniProt Q8TDU9); test: RLU of RXFP4 at 1.0 µM in the […] PRESTO-Tango GPCRome screen; conditions: Compound concentration 1.0 uM
[23] = target: Melanocortin receptor 4 (Homo sapiens) (UniProt P32245); test: RLU of MC4R at 1.0 µM in the […] PRESTO-Tango GPCRome screen; conditions: Compound concentration 1.0 uM
[24] = target: N-formyl peptide receptor 2 (Homo sapiens) (UniProt P25090); test: RLU of FPR2 at 1.0 µM in the […] PRESTO-Tango GPCRome screen; conditions: Compound concentration 1.0 uM
[25] = target: fMet-Leu-Phe receptor (Homo sapiens) (UniProt P21462); test: RLU of FPR1 at 1.0 µM in the […] PRESTO-Tango GPCRome screen; conditions: Compound concentration 1.0 uM
[26] = target: G-protein coupled receptor 6 (Homo sapiens) (UniProt P46095); test: RLU of GPR6 at 1.0 µM in the […] PRESTO-Tango GPCRome screen; conditions: Compound concentration 1.0 uM
[27] = target: Calcitonin gene-related peptide type 1 receptor (Homo sapiens) (UniProt Q16602); test: RLU of CALCRL at 1.0 µM in the […] PRESTO-Tango GPCRome screen; conditions: Compound concentration 1.0 uM
[28] = target: C-C chemokine receptor type 7 (Homo sapiens) (UniProt P32248); test: RLU of CCR7 at 1.0 µM in the […] PRESTO-Tango GPCRome screen; conditions: Compound concentration 1.0 uM
[29] = target: Muscarinic acetylcholine receptor M5 (Homo sapiens) (UniProt P08912); test: RLU of CHRM5 at 1.0 µM in the […] PRESTO-Tango GPCRome screen; conditions: Compound concentration 1.0 uM
[30] = target: Prostaglandin E2 receptor EP4 subtype (Homo sapiens) (UniProt P35408); test: RLU of PTGER4 at 1.0 µM in the […] PRESTO-Tango GPCRome screen; conditions: Compound concentration 1.0 uM
[31] = target: Succinate receptor 1 (Homo sapiens) (UniProt Q9BXA5); test: RLU of SUCNR1 at 1.0 µM in the […] PRESTO-Tango GPCRome screen; conditions: Compound concentration 1.0 uM
[32] = target: Beta-1 adrenergic receptor (Homo sapiens) (UniProt P08588); test: RLU of ADRB1 at 1.0 µM in the […] PRESTO-Tango GPCRome screen; conditions: Compound concentration 1.0 uM
[33] = target: Type-1 angiotensin II receptor (Homo sapiens, UniProt P30556); test: IP-One assay (AGTR1), agonist mode at up to 50 µM; format: functional; set-up: compound concentration < 50 uM
[34] = target: Adhesion G protein-coupled receptor E5 (Homo sapiens) (UniProt P48960); test: RLU of CD97 at 1.0 µM in the […] PRESTO-Tango GPCRome screen; conditions: Compound concentration 1.0 uM
[35] = target: Hydroxycarboxylic acid receptor 3 (Homo sapiens) (UniProt P49019); test: RLU of HCA3 at 1.0 µM in the Aequorin PRESTO-Tango GPCRome screen; conditions: Compound concentration 1.0 uM
Hydroxycarboxylic acid receptor 3 (Homo sapiens), sequence (P49019 whole entry): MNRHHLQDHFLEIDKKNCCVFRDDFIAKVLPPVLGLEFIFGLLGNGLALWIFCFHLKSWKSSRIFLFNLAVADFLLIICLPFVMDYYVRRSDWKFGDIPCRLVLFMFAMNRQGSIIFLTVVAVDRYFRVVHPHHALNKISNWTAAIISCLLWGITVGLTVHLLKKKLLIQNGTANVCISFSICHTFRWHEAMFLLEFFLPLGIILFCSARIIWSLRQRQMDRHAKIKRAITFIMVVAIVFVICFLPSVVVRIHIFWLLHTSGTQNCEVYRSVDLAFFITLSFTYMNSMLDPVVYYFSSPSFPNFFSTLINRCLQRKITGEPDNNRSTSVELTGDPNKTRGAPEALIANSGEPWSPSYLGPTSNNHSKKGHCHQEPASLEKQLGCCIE

Galanin receptor type 2 (Homo sapiens), sequence (O43603 whole entry): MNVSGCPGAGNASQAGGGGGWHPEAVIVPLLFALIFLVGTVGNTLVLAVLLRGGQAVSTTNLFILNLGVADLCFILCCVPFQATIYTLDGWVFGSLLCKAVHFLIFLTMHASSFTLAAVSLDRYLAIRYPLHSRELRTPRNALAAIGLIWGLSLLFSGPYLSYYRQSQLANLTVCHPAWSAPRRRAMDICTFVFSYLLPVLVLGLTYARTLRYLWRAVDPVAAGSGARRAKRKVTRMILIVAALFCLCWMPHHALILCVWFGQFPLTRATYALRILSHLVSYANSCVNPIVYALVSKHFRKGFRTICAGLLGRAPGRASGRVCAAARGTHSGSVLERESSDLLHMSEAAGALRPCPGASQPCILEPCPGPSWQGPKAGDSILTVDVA
Beta-1 adrenergic receptor (Homo sapiens), sequence (P08588 whole entry, looked up): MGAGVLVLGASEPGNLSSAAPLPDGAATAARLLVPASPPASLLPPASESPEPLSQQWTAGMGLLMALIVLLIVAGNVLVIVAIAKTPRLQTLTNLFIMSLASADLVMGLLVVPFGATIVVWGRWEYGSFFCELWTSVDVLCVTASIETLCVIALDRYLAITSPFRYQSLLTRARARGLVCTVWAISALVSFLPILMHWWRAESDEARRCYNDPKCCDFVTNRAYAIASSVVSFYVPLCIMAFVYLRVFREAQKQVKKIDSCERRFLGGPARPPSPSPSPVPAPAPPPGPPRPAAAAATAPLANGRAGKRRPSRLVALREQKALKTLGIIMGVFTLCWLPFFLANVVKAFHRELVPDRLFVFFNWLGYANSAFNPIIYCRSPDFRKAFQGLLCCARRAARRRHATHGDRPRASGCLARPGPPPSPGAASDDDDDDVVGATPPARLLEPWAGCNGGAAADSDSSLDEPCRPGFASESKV
Mu-type opioid receptor (Homo sapiens), sequence (P35372 whole entry): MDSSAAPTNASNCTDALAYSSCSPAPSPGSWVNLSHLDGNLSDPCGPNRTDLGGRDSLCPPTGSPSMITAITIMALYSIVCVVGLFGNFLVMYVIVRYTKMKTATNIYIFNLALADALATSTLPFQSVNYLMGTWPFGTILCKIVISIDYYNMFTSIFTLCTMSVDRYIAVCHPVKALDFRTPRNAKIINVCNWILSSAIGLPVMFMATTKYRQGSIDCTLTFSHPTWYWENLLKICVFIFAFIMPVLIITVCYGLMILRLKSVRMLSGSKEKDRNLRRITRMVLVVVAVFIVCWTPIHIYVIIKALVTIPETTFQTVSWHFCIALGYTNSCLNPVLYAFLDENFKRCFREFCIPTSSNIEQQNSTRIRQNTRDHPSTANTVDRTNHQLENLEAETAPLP
Melanocortin receptor 4 (Homo sapiens), sequence (P32245 whole entry): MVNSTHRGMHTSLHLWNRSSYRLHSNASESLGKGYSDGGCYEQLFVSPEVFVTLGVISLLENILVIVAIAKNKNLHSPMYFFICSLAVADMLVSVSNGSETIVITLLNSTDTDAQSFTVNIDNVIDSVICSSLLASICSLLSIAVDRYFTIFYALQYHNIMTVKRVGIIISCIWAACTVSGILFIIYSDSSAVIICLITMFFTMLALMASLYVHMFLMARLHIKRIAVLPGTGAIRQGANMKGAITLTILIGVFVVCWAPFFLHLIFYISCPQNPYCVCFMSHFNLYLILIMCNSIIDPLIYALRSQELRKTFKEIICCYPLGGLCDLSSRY
fMet-Leu-Phe receptor (Homo sapiens), sequence (P21462 whole entry): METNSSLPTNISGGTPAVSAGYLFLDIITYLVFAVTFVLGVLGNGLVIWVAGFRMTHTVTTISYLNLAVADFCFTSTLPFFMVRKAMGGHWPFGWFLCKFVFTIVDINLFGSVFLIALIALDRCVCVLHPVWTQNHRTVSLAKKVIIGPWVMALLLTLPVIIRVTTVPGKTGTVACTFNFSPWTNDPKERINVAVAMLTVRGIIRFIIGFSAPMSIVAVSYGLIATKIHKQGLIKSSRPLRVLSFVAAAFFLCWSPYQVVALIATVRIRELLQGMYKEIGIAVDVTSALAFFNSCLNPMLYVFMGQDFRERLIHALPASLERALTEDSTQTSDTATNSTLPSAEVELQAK
Adhesion G protein-coupled receptor E5 (Homo sapiens), sequence (P48960 21-530 limits assumed): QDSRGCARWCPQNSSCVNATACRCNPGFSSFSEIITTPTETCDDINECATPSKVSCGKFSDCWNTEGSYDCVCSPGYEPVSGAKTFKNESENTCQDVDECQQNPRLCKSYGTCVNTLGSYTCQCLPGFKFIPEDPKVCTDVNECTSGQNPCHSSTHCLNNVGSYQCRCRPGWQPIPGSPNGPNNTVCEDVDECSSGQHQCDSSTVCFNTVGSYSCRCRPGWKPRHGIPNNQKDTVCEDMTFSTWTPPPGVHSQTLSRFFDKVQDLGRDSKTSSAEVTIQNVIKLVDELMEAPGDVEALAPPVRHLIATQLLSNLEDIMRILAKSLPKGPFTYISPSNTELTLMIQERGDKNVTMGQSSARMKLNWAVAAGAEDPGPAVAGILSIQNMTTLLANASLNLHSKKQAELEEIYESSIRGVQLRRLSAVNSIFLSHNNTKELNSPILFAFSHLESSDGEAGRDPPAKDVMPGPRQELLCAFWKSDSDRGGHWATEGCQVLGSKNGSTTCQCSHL
Adhesion G protein-coupled receptor E5 (Homo sapiens), sequence (P48960 531-835 limits assumed): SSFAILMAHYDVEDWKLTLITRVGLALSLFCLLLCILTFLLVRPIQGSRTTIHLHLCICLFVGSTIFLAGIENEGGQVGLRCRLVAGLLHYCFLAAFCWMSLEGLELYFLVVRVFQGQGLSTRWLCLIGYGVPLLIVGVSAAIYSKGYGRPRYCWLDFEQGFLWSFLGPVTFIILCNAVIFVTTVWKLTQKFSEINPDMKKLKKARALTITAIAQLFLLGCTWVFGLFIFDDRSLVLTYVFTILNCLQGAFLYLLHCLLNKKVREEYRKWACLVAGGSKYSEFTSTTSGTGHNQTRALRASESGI
N-arachidonyl glycine receptor (Homo sapiens), sequence (Q14330 whole entry): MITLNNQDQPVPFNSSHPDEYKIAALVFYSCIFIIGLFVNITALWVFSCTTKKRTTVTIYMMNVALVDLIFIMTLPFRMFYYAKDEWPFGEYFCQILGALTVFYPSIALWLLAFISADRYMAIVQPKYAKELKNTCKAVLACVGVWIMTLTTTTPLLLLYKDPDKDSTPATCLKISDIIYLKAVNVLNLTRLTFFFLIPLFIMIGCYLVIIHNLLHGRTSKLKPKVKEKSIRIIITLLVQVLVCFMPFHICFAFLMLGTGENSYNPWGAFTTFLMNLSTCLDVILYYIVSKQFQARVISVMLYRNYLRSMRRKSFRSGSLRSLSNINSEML
G-protein coupled receptor 26 (Homo sapiens), sequence (Q8NDV2 whole entry): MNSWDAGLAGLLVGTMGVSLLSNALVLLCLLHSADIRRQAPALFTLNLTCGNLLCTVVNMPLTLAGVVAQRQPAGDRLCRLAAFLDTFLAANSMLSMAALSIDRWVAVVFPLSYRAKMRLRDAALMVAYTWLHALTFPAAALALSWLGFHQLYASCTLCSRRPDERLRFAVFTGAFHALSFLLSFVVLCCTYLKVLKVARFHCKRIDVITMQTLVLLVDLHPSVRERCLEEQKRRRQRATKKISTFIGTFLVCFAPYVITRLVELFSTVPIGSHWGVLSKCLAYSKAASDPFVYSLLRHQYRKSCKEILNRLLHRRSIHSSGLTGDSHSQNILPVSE
Type-2 angiotensin II receptor (Homo sapiens), sequence (P50052 whole entry): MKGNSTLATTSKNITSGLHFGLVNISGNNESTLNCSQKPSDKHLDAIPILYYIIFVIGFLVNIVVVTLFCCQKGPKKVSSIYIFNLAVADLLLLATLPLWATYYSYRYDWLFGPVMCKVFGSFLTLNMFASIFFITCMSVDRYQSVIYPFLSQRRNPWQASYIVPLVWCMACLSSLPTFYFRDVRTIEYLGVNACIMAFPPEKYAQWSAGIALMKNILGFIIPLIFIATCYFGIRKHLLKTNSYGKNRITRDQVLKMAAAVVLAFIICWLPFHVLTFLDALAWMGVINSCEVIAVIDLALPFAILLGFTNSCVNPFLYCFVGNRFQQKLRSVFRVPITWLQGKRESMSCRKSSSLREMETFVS
Calcitonin gene-related peptide type 1 receptor (Homo sapiens), sequence (Q16602 whole entry): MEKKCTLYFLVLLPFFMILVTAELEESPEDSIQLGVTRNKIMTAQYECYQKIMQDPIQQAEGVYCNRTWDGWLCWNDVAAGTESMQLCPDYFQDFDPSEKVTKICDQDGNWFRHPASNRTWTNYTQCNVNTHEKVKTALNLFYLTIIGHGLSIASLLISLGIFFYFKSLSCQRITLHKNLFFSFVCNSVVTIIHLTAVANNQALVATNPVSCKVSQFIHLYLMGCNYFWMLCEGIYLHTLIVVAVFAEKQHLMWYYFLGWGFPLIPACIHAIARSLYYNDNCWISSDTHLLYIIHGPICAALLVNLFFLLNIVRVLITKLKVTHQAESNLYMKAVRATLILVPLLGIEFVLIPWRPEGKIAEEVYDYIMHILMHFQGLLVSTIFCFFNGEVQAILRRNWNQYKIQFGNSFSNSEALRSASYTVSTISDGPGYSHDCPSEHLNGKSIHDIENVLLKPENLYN

RLU [1]: -88.5
RLU [2]: 1540
RLU [3]: -4100
RLU [4]: -5970
RLU [5]: -7340
RLU [6]: 153000
RLU [7]: 1140
RLU [8]: -1350
RLU [9]: 5320
RLU [10]: 390
RLU [11]: 5300
RLU [12]: -383
RLU [13]: 1880
RLU [14]: -607
RLU [15]: -6500
RLU [16]: 5670
RLU [17]: 2790
RLU [18]: 506
RLU [19]: 3970
RLU [20]: -3470
RLU [21]: -187
RLU [22]: 68.6
RLU [23]: -2110
RLU [24]: 31.8
RLU [25]: 3270
RLU [26]: 1.07e+06
RLU [27]: 2370
RLU [28]: 342
RLU [29]: 7390
RLU [30]: 620
RLU [31]: 1540
RLU [32]: 19400
EC50 [33]: > 50 µM (not active)
RLU [34]: -895
RLU [35]: 1810
Structure (SMILES): CCCCC(=O)N1CC2(C1)CN(c1ccccc1-c1nnn[nH]1)C2
